Measurements from patent US20060128997A1, “New method for the preparation of 1,5-bis(4-hydroxy-3-metoxy-phenyl)-penta-1,4-dien-3-one and derivatives with antitumoral properties” (priority 2003, published 2006).
Values joined by “and” are separate entries in the source; they are usually repeats but may differ in a detail not shown here. Identical values can stand only once.

How the values were obtained:
[1] = system: all cell lines (nine different types of human cancer); test: Antiproliferate test, sulforrodamina B essay, whole panel of cell lines; format: cell-based; details: for concentration from which cytotoxic / killer cell activity (cellular death) is presented: all cell lines of the panel
Experimental: (§1) Methodology utilized to perform the antitumoral tests:
(§2) Report of the Antiproliferate Test in Tumoral Human Cells with the Sulforrodamina B Essay
(§3) The cell lines used in the essays, described in the table 1, were maintained in recipients of 25 cm^2 (Nunc®), with 5 mL of culture medium RPMI 1640 supplemented with 5% bovine foetal serum (RPMI/SFB), at 37° C. in atmosphere of 5% of CO2 and 100% of humidity.
(§4) […] of cells in medium RPMI/SFB with 50 μg/mL of Gentamicin were inoculated in its respectives densities of inoculation, in plates of 96 compartments and incubated for 24 hours at 37° C. in atmosphere of 5% of CO2 and 100% of humidity.
(§5) After 24 hours, […] of the test substance were added in the following concentrations of 250; 25; 2.5; 0.2 μg/mL diluted in RPMI/SFB/gentamicin. In this moment the reading of one plate was performed for the determination of the T0 (cell control in the moment of the adding the samples). The other plates were incubated for 48 hours After this period the experiment was paused by adding the trichlorine acetic acid to further determine the protein content by means of […] essay with the sulforrodamina B.
(§6) The stocked solutions were developed by diluting the samples in dimethyl sulfoxide (DMSO) in the concentration of 0.1 g/mL. That solution was diluted by 400 times in RPMI/SFB/gentamicina to be added in the plates of 96 compartments being obtained so the a ideal concentration of DMSO (Skehan e cols. 1990).
(§7) At the end of the test, the plates of 96 compartments were centrifuged for 3 minutes at 2000 rpm, and they were fixed with 50 μL of a solution at 50% of trichloroacetic acid (TCA) at 4° C. To complete the cellular fixation, the plates were incubated for 1 hour at 4° C.
(§8) The plates were submitted to four consecutive washes with distillated water to remore the residues of TCA, medium, SFB and secondary metabolic and maintained at room temperature until the complete drying.
(§9) A coloration was performed by the adding of 50 μL SRB at 0.4% (weight/volume) diluted in acetic acid at 1%, and maintained at 4° C. for 30 minutes. Further, they were washed by 4 consecutive times with a solution of acetic acid 1%. The residue of the washing of the solution was removed and the plates were dried again at room temperature. The colorant linked to the cellular protein was diluted with a solution of Trizma Base (Sigma®) in concentration of […] and pH 10.5 for 5 minutes in ultrasonic bath. The spectrophotometric of absorbancy reading was performed in 560 nm in a micro plates lector (Labsystems Labsystems Multiskan® MCC/340).
(§10) The absorbancy averages were assessed having discounted its respective nulls and by means of the formula shown below was determined the growth inhibition (IC) of each tested sample.
(§11) If T≧T0 but <C, the drug was cytostatic and the formula used is 100×[(T−To)/(C−T0)]
(§12) If T<T0 the drug was cytotoxic and the formula used is […]
(§13) Considering that T is the absorbency average of the treated cell C is the cell control and T0 is the cell control in the addition day.
(§14) The obtained result was subtracted from 100% so obtaining the percentage of growth inhibition. The samples were considered actives since they presented growth inhibition dependant dose higher than 50% and selective lineage, that is, the preferential activity for only one type of tumoral cell or with cytostatic and/or killer cell effect well distinguished among the cell lines.
(§15) All the assays were performed in triplicates so that the presented results make reference to a representative experiment. The standard deflection from the average was always lower than 5%.

[2] = Acute toxicity test (LD50, body weight, deaths); format: in vivo, albinic swiss mouses; details: for Initial Weight, Average ± dpm / Initial Weight, single animal: beginning of the test; for Final Weight, Average ± dpm / Final Weight, single animal: ending of the test
Experimental: Also a toxicological test with the sample denominated 37 compound (Acute Toxicity, LD50, via intraperitoneal).
Methodology utilized to perform the toxicological tests:
10 albinic swiss mouses are used, of the male gender, weighting approximately 25 g, for each of the treated groups and control;
Adaptation period: the animals are maintained in the tests room at least for 07 days before the beginning of the essay;
The animals are submitted to fast 12 hours before administering the test substance, done by gavage, at the time the animal's body weight is listed.
After the administration the animals are maintained in observation for a minimum period of 14 days.
The number of death animals for each one of the doses is listed and the LD50 is assessed by Litchfield and Wilcoxon's (1949) method and the animal's body weight is listed at the end of the acute toxicity test.

[3] = system: MCF7 (Normal mamma tumor); test: Antiproliferate test in tumoral human cells, sulforrodamina B essay; format: cell-based
Experimental: as §1, §2, §3, §4, §5, §6, §7, §8, §9, §10, §11, §12, §13, §14, §15

NCI460 (Lung tumor) = test: as above; format: cell-based
Experimental: as §1, §2, §3, §4, §5, §6, §7, §8, §9, §10, §11, §12, §13, §14, §15

UACC62 (Melanoma) = test: as above; format: cell-based
Experimental: as §1, §2, §3, §4, §5, §6, §7, §8, §9, §10, §11, §12, §13, §14, §15

[4] = system: NCIADR (Mamma tumor which expresses the phenotype resistance against multiple drugs); test: as above; format: cell-based; details: for growth inhibition of the Mama NCI-ADR cell line, in words: resistance against multiple drugs
Experimental: as §1, §2, §3, §4, §5, §6, §7, §8, §9, §10, §11, §12, §13, §14, §15

HT-1080 = details: literature values (Banskota, Kimoto); unit not given; cited from earlier work
Colon L5-26 = details: literature values (Banskota, Kimoto); unit not given; cited from earlier work

COc1cc(C=CC(=O)C=Cc2ccc(O)c(OC)c2)ccc1O [Compound 37, 1,5-bis(4-hydroxy-3-methoxyphenyl)-penta-1,4-dien-3-one]
cytostatic / antiproliferate activity (growth inhibition), in words ([1]; all cell lines): cytostatic activity (growth inhibition) for all cell lines | concentration from which cytotoxic / killer cell activity (cellular death) is presented [1]: ≥ 250 ng/mL | cytostatic / antiproliferate activity (growth inhibition), in words ([1]; all cell lines, listed as 37/01): cytostatic activity (growth inhibition) in the concentrations evaluated | Deaths (n), single animal ([2]; 2.5 g/Kg via intraperitoneal): 0 | Initial Weight, Average ± dpm ([2]; 2.5 g/Kg via intraperitoneal): 24.60 ± 2.51 g | Initial Weight, single animal ([2]; 2.5 g/Kg via intraperitoneal): 24.5 g and 25.4 g (2×) and 24.1 g and 26.6 g and 24.8 g and 22.5 g and 29.7 g and 22.4 g and 20.6 g | Final Weight, Average ± dpm ([2]; 2.5 g/Kg via intraperitoneal): 27.88 g | Final Weight, single animal ([2]; 2.5 g/Kg via intraperitoneal): 26.4 g and 28.0 g and 28.6 g and 27.4 g and 29.0 g and 27.8 g and 25.0 g and 31.2 g and 25.4 g and 22.8 g | Deaths (n), single animal ([2]; 3.0 g/Kg via intraperitoneal): 0 (9×) and 1 | Initial Weight, Average ± dpm ([2]; 3.0 g/Kg via intraperitoneal): 25.47 ± 2.43 g | Initial Weight, single animal ([2]; 3.0 g/Kg via intraperitoneal): 28.3 g and 30.9 g and 24.6 g and 25.4 g and 25.1 g and 23.2 g and 23.6 g (2×) and 26.0 g and 24.0 g | Final Weight, Average ± dpm ([2]; 3.0 g/Kg via intraperitoneal): 27.81 g | Final Weight, single animal ([2]; 3.0 g/Kg via intraperitoneal): 30.3 g and 32.5 g and 25.9 g and 28.0 g and 27.9 g and 25.6 g and 26.0 g and 25.8 g and 28.3 g and Death | Deaths (n), single animal ([2]; 4.0 g/Kg via intraperitoneal): 0 (9×) and 1 | Initial Weight, Average ± dpm ([2]; 4.0 g/Kg via intraperitoneal): 26.41 ± 3.52 g | Initial Weight, single animal ([2]; 4.0 g/Kg via intraperitoneal): 29.8 g and 25.5 g and 33.2 g and 25.9 g and 26.3 g and 28.9 g and 26.7 g and 23.3 g (2×) and 21.2 g | Final Weight, Average ± dpm ([2]; 4.0 g/Kg via intraperitoneal): 28.98 g | Final Weight, single animal ([2]; 4.0 g/Kg via intraperitoneal): 32.5 g and 26.9 g and 35.9 g and 28.9 g and 29.0 g and 30.2 g and 28.0 g and 25.9 g and 23.5 g and Death | Deaths (n), single animal ([2]; 5.0 g/Kg via intraperitoneal): 0 (8×) and 1 (2×) | Initial Weight, Average ± dpm ([2]; 5.0 g/Kg via intraperitoneal): 23.68 ± 1.42 g | Initial Weight, single animal ([2]; 5.0 g/Kg via intraperitoneal): 24.9 g and 21.0 g and 25.4 g and 22.2 g and 24.0 g and 23.8 g and 22.5 g and 23.5 g and 24.2 g and 25.3 g | Final Weight, Average ± dpm ([2]; 5.0 g/Kg via intraperitoneal): 25.86 g | Final Weight, single animal ([2]; 5.0 g/Kg via intraperitoneal): 25.9 g (2×) and 24.0 g and 27.8 g and 25.6 g and 27.0 g and 25.8 g and 24.9 g and Death (2×) | toxicity classification according to Loomis, in words ([2]; from LD50 (5.0-15 g/Kg = practically nontoxic)): practically nontoxic | LD50 at 14 days ([2]; male, Swiss albino, mouse, in vivo, ip, acute toxicity, via intraperitoneal, linear regression, 14 days of observation): 8540 mg/kg | concentration with cytotoxic activity (cellular death) [3]: ≥ 250 ng/mL | concentration with cytotoxic activity (cellular death) (NCI460 (Lung tumor)): ≥ 250 ng/mL | concentration with cytotoxic activity (cellular death) (UACC62 (Melanoma)): ≥ 250 ng/mL | concentration with cytotoxic activity (cellular death) [4]: ≥ 250 ng/mL | growth inhibition of the Mama NCI-ADR cell line, in words ([4]; listed as 37/01): strong cytostatic activity | growth inhibition of the Mama NCI-ADR cell line, in words ([4]; listed as our product): inhibited the growth

COc1cc(C=CC(=O)C=Cc2ccc(OC(C)=O)c(OC)c2)ccc1OC(C)=O [EHB1, 1,5-bis(3-metoxy-4-acetoxyphenyl)-penta-1,4-dien-3-one]
concentration from which cytostatic activity (growth inhibition) is presented ([1]; all cell lines): ≥ 0.25 µg/mL | concentration from which cytotoxic / killer cell activity (cellular death) is presented [1]: ≥ 25000 ng/mL | selectivity for the studied cell lines, in words ([1]; panel of cell lines): not selective | growth inhibition ([4]; NCI-ADR cell line, concentration not clearly stated (from 25 μg/mL)): around 25%

CC(C)=CCc1cc(C=CC(=O)O)cc2c1OC(C)(C)C=C2 [Compound 2, 2,2-dimethyl-8-prenyl-2H-1-benzopyranbenzopyrene-6-yl-2-propenoic acid]
Cytotoxicity HT-1080 (HT-1080): 46.86 | Cytotoxicity Colon L5-26 (Colon L5-26): 50.22

CC(C)=CCc1cc(C=CC(=O)O)ccc1OC(=O)CCc1ccccc1 [Compound 4, 4-dihydrocinnamoyloxy-3-prenylcinnamic acid]
Cytotoxicity HT-1080 (HT-1080): 25.94 | Cytotoxicity Colon L5-26 (Colon L5-26): 77.90
